The record followed here is US9012414B2, “Cosmetic composition” (Guerlain, priority 2010, dated 2015).

The test system of one assay is cytochrome C oxidase. The experiment in a line: Stimulation of cytochrome C oxidase on modified human keratinocytes (HaCaT). It counts as cell-based. Conditions: for Activation of cytochrome C oxidase activity: HaCaT cells, treatment 3 h, positive control resveratrol 11.41 μg/ml (50 μM). How it is done: The objective of the study is to evaluate the potential of the compounds which are the subject of the invention for stimulating the performance levels of the mitochondrial respiratory chain. The assays are carried out on genetically modified human keratinocytes (HaCaT).
The HaCaT cells were cultured in 6-well plates in RPMI 1640 medium (Roswell Park Memorial Institute) w/o HEPES (Invitrogen) supplemented with 10% of fetal calf serum (FCS, Invitrogen) and a penicillin/streptomycin mixture, until confluence. They were then treated, in DMEM (Dulbecco's Modified Eagle Medium, Invitrogen) containing 4.5 g/L of glucose, 0.1% BSA (Bovine Serum albumin AM2618 Invitrogen), with serial dilutions of vandaterosides (from 6.25 to 0.78 μg/ml) diluted in DMSO (0.1% v/v final concentration). Resveratrol (Sigma) at 50 μM, i.e. 11.41 μg/ml, was used as positive reference. The untreated cells containing 0.1% v/v of DMSO were considered to be a negative control. After treatment for 3 h, the cells were lysed (20 mM HEPES, 0.1% Triton, 1 mM EDTA) and the total cell proteins were assayed by means of the Bradford technique (B6916 Sigma). The total protein concentration of each sample was then adjusted to 2 mg/ml.
The cell lysate was incubated in the presence of an assay buffer (Sigma) in order to determine the enzymatic kinetics without the addition of substrate, denoted Vo. Cytochrome C (from equine heart C-7752 Sigma) reduced with DTT (dithiothreitol, Sigma) was added to the assay buffer at 50 μM in order to measure the rate of the enzymatic reaction. The disappearance of the reduced cytochrome C was monitored using a spectrophotometer [Beckman DU 640] at 550 nm for 90 seconds according to the manufacturer's (Sigma) instructions. The results were calculated from the enzymatic kinetics curves and are expressed as cytochrome C oxidase activity (U/μg of proteins).
The equations allowing the calculation of the enzymatic activities are the following: Enzymatic activity of cytochrome C in U/ml=ACOX=(DA/min)/21.84 with: • DA/min=A/min(v)−A/min (v0) • 21.84 (mM)=ε(molar extinction coefficient) of ferrocytochrome C at 550 nm • A=Absorbance at 550 nm • A/min(v)=Absorbance at 550 nm at time “v” in minutes, corresponding to the time of the measurement after the addition of the substrate; • A/min (v0)=Absorbance at 550 nm at time “v0” (at the start, i.e. before the addition of substrate) in minutes.
The results are expressed by comparison of the enzymatic activity measured in the presence of the vandaterosides (ACOX samples) relative to the control enzymatic activity (ACOX control): i.e. (ACOX samples)/(ACOX control).
A calculated (ACOX samples)/(ACOX control) ratio of greater than 1 indicates stimulation of the activity of cytochrome C oxidase in the presence of the samples.

In assay [1] the test system is mitochondrial dehydrogenases (complex I and complex II) of normal human keratinocytes (NHKs). Nature of the assay: Stimulation of mitochondrial dehydrogenases on keratinocytes (XTT conversion to formazan). It counts as cell-based. Conditions: treatment 48 h; for Stimulation of mitochondrial dehydrogenase activity / mitochondrial respiratory functions (XTT): NHKs without irradiation, 6.25 to 0.78 μg/ml. How it is done:
Normal human keratinocytes (NHKs), isolated from eyelids of 37-year-old Caucasian women, are cultured at passage 3 in complemented (Invitrogen) Keratinocyte Serum Free Medium (KSFM, Invitrogen) supplemented with 5% of fetal calf serum (FCS, Invitrogen).
The NHKs are seeded in 96-well plates (Greiner Bio One) in a proportion of 1.10^4 cells/well, and then incubated at 37° C., 5% CO2 for 24 h. These cells are then treated, after UVB irradiation (60 mJ/cm^2 Vilbeit-Lourmat irradiator) or without irradiation, with serial dilutions of the VT1, VT2 and VT3 compounds (from 6.25 to 0.78 μg/ml) diluted in DMSO (sigma) 0.1% v/v final concentration. The plates are incubated at 37° C., 5% CO2. The untreated cells containing 0.1% v/v of DMSO are considered to be a negative control. After treatment for 48 h, the supernatants are removed and the XTT solution (Cell proliferation kit II, Roche Diagnostic) is deposited in each well in order to determine the overall activity of the mitochondrial dehydrogenases. This activity is evaluated by means of the conversion of an XTT tetrazolium salt to soluble formazan, via a cell mechanism which calls for the enzymatic activities of the glycolytic NAD(P)H dehydrogenase (complex I) and of succinate dehydrogenase (complex II), which are constituents of the mitochondrial respiratory chain. The amount of colored formazan (determined by reading optical density at 450 nm) is directly related, firstly, to the enzymatic activity of the mitochondrial dehydrogenases and, secondly, to the amount of metabolically active cells (Roehm et al. J. Immunol. Methods, 1991; 142: 257-265). […] The 96-well plates are read at 450 nm with a spectrofluorometer (SpectraFluor Plus, Tecan). […]
The results are expressed as mean of the optical densities (OD) at 450 nm and standardized relative to the total concentration of cell proteins (expressed in μg/ml), which makes it possible to measure only the activity of the dehydrogenases and to dispel with the impact of cell proliferation on the measurement of the ODs obtained. […]
For orientation: Tetrazolium dyes change colour on reduction, which living cells bring about.

Each structure is given as a SMILES string. “Also recorded” adds a separate entry of the source.

With `O=C(CC(O)(Cc1ccc(O)cc1)C(=O)OCc1ccc(O[C@@H]2O[C@H](CO)[C@@H](O)[C@H](O)[C@H]2O)cc1)OCc1ccc(O[C@@H]2O[C@H](CO)[C@@H](O)[C@H](O)[C@H]2O)cc1` (stereo partly drawn) [VT2, 1,4-bis(4-β-D-glucopyranosyloxybenzyl)-(2R)-2-(p-hydroxybenzyl) malate], the “Activation of cytochrome C oxidase activity” value with cytochrome C oxidase (6.25 to 0.78 μg/ml) is on record as “stimulatory effect; also recorded: best cytochrome C oxidase activator”. For the same molecule, the “Cytochrome C oxidase activity level compared with resveratrol” value in the assay on cytochrome C oxidase (HaCaT, 1.56 μg/ml (2 μM), 3 h, versus resveratrol 11.41 μg/ml (50 μM)) was “comparable to resveratrol”. The “Stimulation of mitochondrial dehydrogenase activity / mitochondrial respiratory functions (XTT)” value in assay [1] was “most effectively stimulate”. Further, in assay [1] (NHKs, 0.78 μg/ml (1 μM), negative control DMSO 0.1%), the “Stimulation of the activity of the dehydrogenases relative to the negative control” value is “+39%”.

With `O=C(CC(O)(Cc1ccc(O)cc1)C(=O)O)OCc1ccc(O[C@@H]2O[C@H](CO)C(O)[C@H](O)[C@H]2O)cc1` (stereo partly drawn) [VT1, 4-(4-β-D-glucopyranosyloxybenzyl)-(2R)-2-(p-hydroxybenzyl) malate], in the assay on cytochrome C oxidase (6.25 to 0.78 μg/ml), the “Activation of cytochrome C oxidase activity” value is given as “stimulatory effect”. For the same molecule, the “Dose effect on cytochrome C oxidase activity” value in the assay on cytochrome C oxidase (HaCaT, 6.25 to 0.78 μg/ml, 3 h) was “A dose effect is observed”. Moreover, in assay [1], the “Stimulation of mitochondrial dehydrogenase activity / mitochondrial respiratory functions (XTT)” value is given as “most effectively stimulate”.
